Results on one molecule are retold here after ChEMBL document CHEMBL1629567, “Pharmacodynamics of cidofovir for vaccinia virus infection in an in vitro hollow-fiber infection model system” (Antimicrob Agents Chemother, 2009).

Data set [1] is described as follows: AUC (0 to 24 hrs) in hollow-fiber infection model at 3 uM as continuous infusion. Also on record: time < 24 hr, dose 3 uM. The format is ADME.
A short description of data set [2]: AUC in cynomolgus monkey with probenecid at 5 mg/kg five dose regimen for 13 days. Type of data set: ADME, organism-based, Macaca fascicularis. Also noted: dose 5 mg/kg. Conditions: plasma.
Data set [3] can be described thus: AUC (0 to infinity) in human at 5 mg/kg administered as single dose. Type of data set: ADME, organism-based. Also on record: time infinity, dose 5 mg/kg. To be noted: plasma.
A short description of data set [4]: AUC in cynomolgus monkey with probenecid at 5 mg/kg single dose regimen for 13 days. Type of data set: ADME, organism-based, Macaca fascicularis. Also on record: dose 5 mg/kg. Conditions: plasma.
The subject of data set [5] is Vaccinia virus. Put plainly: Antiviral activity against Vaccinia virus WR infected in cynomolgus monkey with probenecid assessed as decrease in plasma viral titer at 6 dose regimen of 2.5 mg/kg for 13 days. The format is functional, Orthopoxvirus vaccinia. Also noted: scale not given: the % may be the effect or the level left.
A short description of data set [6]: AUC in cynomolgus monkey with probenecid at 2.5 mg/kg. The format is ADME, organism-based, Macaca fascicularis. Also on record: dose 2.5 mg/kg. Conditions: plasma.
For data set [7], the system named is Vaccinia virus. Put plainly: Antiviral activity against Vaccinia virus WR infected in cynomolgus monkey with probenecid assessed as decrease in plasma viral titer at 5 dose regimen of 2.5 mg/kg for 13 days. Type of data set: functional. To be noted: Orthopoxvirus vaccinia, in Macaca fascicularis, 312 h.
Data set [8] concerns Vaccinia virus. Put plainly: Antiviral activity against Vaccinia virus IHD-W ATCC VR-1441 infected in HeLaS3 cells after 3 to 5 days by plaque assay. Conditions: Orthopoxvirus vaccinia, IHD-W ATCC VR-1441, HeLa S3. Type of data set: functional, organism-based.
A short description of data set [9]: Antiviral activity against Vaccinia virus IHD-J ATCC VR-156 infected in HeLaS3 cells after 3 to 5 days by plaque assay. The format is functional, cell-based. Conditions: ATCC VR-156, HeLa S3.
Data set [10] is described as follows: AUC (0 to 24 hrs) in hollow-fiber infection model at >50 uM as continuous infusion. Type of data set: ADME. Also on record: dose 50 uM, time < 24 hr.
In the next data set the test system is Variola major virus. Put plainly: Antiviral activity against Variola major virus. Type of data set: functional.
Data set [11] can be described thus: AUC in cynomolgus monkey with probenecid at 5 mg/kg six dose regimen for 13 days. Also noted: dose 5 mg/kg. Conditions: plasma. The format is ADME, organism-based, Macaca fascicularis.

Bounds are passed on as bounds.

In general, AUC(0-t) refers to exposure summed from dosing to a finite time, without extrapolation to infinity. What is called AUC is concentration integrated over time. The AUC(0-inf) is the area under the concentration-time curve extrapolated to infinity. As a reminder, the Emax is the greatest response seen or fitted, relative to the assay's reference. A word on the EC50: it is the midpoint of the concentration-response curve. As to `Nc1ccn(C[C@@H](CO)OCP(=O)(O)O)c(=O)n1.O.O` [CIDOFOVIR], the AUC(0-t) at 24 h, 3 µM in data set [1] is 72 µM·h. Moreover, the AUC at 312 h in data set [2] came to 514 µM·h; in data set [4], 103 µM·h; in data set [11], 617 µM·h. This molecule also displayed an AUC(0-inf) in [3] of 75 µM·h. Moreover, the Activity in the data set on Vaccinia virus [5] is below 10%; in the data set with Variola major virus, 6 µM. The molecule further returned an exposure (AUC) in data set [6] of 14400 ng·h/mL. In addition, the Emax at 2.5 mg/kg in the data set on Vaccinia virus [7] amounted to 30%. The EC50 in the data set with Vaccinia virus [8] is 20.6 µM; in [9], 18.7 µM. Besides, in data set [10], the exposure AUC(0-t) at 24 h, 50 µM was above 1200 µM·h.
